Laboratory results from ChEMBL document CHEMBL4049450, “Discovery of 5-Azaindazole (GNE-955) as a Potent Pan-Pim Inhibitor with Optimized Bioavailability” (J Med Chem, 2017).
Values after ≈ are worked out from the molar mass of the structure shown.

Experiments:
[1] = Metabolic stability in rat intestinal microsomes assessed as compound remaining after 60 mins in presence of NADPH; assay type: ADME, Intestine, Microsome; conditions: read-out: Stability
[2] = Oral bioavailability in rat at 5 mg/kg; assay type: ADME, organism-based; conditions: in vivo
Plasma [3] = assay: Drug metabolism in rat assessed as 6-((R)-1-(6-(5-(1-ethyl-1H-pyrazol-4-yl)-1H-pyrazolo[3,4-c]pyridin-3-yl)pyridin-2-yl)piperidin-3-ylamino)-3,4,5-trihydroxytetrahydro-2H-pyran-2-carboxylic acid metabolite formation in plasma at 5 mg/kg, po; assay type: ADME, organism-based; conditions: in vivo
[4] = Kinetic solubility of compound at pH 7.4; conditions: buffer
[5] = Apparent permeability across apical to basolateral side in MDCK cells; assay type: ADME, cell-based, Canis lupus familiaris; conditions: dog
[6] = Clearance in rat at 1 mg/kg, iv; assay type: ADME, organism-based; conditions: in vivo
Plasma [7] = assay: Drug metabolism in rat assessed as M1 metabolite formation in plasma at 5 mg/kg, po; assay type: ADME, organism-based; conditions: in vivo
[8] = Metabolic stability in rat intestinal microsomes assessed as compound remaining after 60 mins in presence of UDPGA; assay type: ADME, Intestine, Microsome; conditions: read-out: Stability
[9] = Efflux ratio of apparent permeability in MDCK cells; conditions: dog
[10] = Clearance in rat hepatocytes; assay type: ADME, cell-based, Hepatocyte
Plasma [11] = assay: Drug level in rat plasma treated with N4-Phenylpyrimidine-2,4-diamine at 5 mg/kg, po; assay type: ADME, organism-based; conditions: in vivo
[12] = Metabolic stability in rat intestinal microsomes assessed as compound remaining after 60 mins in presence of NADPH/UDPGA; assay type: ADME, Intestine, Microsome; conditions: intestinal microsomes, read-out: Stability
[13] = Metabolic stability in rat intestinal microsomes assessed as compound remaining after 60 mins in absence of NADPH/UDPGA; assay type: ADME, Intestine, Microsome; conditions: intestinal microsomes, read-out: Stability
[14] = Clearance in rat liver microsomes; assay type: ADME, microsome

CCn1cc(-c2cc3c(-c4cccc(N5CCC[C@@H](N)C5)n4)n[nH]c3cn2)cn1
remaining at 1 h [1]: 83% | bioavailability [2]: 1% | Drug metabolism (Plasma [3]): Metabolite_Detected | solubility kinetic [4]: 116 µM (≈ 45.1 µg/mL) | Papp A→B [5]: 0.4 ×10⁻⁶ cm/s | clearance [6]: 8 mL/min/kg | Drug metabolism (Plasma [7]): Metabolite_Detected | remaining at 1 h [8]: 15% | efflux ratio [9]: 56 | CLhep predicted [10]: 14 mL/min/kg | Drug metabolism (Plasma [11]): Metabolite_Detected | remaining at 1 h [12]: 30% | remaining at 1 h [13]: 96% | CLhep predicted [14]: 24 mL/min/kg
